Here are results for 21 compounds from patent US11773078B2, “Furin inhibitors” (Glaxosmithkline Intellectual Property Development Limited, priority 2018, dated 2023).

Structures can show the parent of a compound that is named as a salt.

Assay [1] concerns the target T1, furin (endogenous protease) in U20S cells (Homo sapiens, UniProt P09958).
T1 construct: the endogenous protease cleaves GFP; endogenous in cells; host or cells: U2OS cells transduced with a BacMam reporter
The assay can be described thus: Furin cell-based assay (image-based, Golgi-targeted GFP with BMP10 furin/PCSK cleavage site).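 Further: Read-out is mean GFP fluorescence of Golgi puncta per cell by high-content imaging, retained when furin inhibited, over an eleven-point 0.00017–10 µM series, four-parameter fit.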 Conditions: 24-hour incubation, read-out: furin golgi cell pXC50 (converted).

For assay [2], the target named is T2, Furin (108-574-Tev-Flag-His) enzyme (Homo sapiens, UniProt P09958).
T2 construct: Furin (108-574-Tev-Flag-His) enzyme was expressed and purified from CHO cells; TEV cleavage site (C); FLAG (C); His (C); made in house; host or cells: CHO cells
The assay can be described thus: Furin enzyme assay. In kind it is biochemical. Put shortly:
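CHO-expressed, purified furin construct at 40 pM in 100 mM HEPES pH7.5, 1 mM CaCl2, 0.005% Triton X-100. Eleven-point 1:3 series, 0.00017–10 μM final, incubated 2 h at room temperature and read on Envision. pXC50 from four-parameter fit.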

T2 sequence (P09958 108-574): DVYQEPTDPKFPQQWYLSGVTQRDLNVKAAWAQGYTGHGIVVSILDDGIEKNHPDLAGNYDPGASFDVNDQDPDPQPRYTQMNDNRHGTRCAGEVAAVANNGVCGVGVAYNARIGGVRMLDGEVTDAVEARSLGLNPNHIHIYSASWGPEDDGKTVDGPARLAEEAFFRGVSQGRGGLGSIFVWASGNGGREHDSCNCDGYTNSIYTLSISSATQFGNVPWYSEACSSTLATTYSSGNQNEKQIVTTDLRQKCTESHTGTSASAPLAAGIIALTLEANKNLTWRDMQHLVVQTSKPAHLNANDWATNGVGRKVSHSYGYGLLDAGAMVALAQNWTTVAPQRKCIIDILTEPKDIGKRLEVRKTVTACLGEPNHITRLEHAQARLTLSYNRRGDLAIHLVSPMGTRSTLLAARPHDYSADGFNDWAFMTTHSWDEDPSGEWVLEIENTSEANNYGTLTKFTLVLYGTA
T1 sequence (P09958 108-794): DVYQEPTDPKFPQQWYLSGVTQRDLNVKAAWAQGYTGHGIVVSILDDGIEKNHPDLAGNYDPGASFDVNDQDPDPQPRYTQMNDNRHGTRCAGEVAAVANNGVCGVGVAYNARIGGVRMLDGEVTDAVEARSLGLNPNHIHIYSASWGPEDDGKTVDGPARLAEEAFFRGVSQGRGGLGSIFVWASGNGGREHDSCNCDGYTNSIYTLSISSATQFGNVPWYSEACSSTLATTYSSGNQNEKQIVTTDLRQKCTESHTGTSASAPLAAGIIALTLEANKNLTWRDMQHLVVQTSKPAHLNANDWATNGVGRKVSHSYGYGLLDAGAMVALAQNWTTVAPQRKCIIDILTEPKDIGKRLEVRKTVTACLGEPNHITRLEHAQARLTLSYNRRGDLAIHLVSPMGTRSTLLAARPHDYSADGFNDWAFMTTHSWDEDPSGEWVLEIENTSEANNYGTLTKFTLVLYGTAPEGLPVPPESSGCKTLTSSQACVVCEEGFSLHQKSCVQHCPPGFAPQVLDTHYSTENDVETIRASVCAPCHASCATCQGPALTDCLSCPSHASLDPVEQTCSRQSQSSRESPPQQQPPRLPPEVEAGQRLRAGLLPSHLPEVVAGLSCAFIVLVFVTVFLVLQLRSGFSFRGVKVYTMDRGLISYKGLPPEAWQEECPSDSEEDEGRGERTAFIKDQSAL

On to `CC(=O)NCC1CCN(Cc2cc(Oc3ccc(N4CCCN(CCC(=O)O)CC4)nc3)nc(-c3cc(Cl)cc(Cl)c3)c2)CC1` [Example 190, 3-(4-(5-((4-((4-(Acetamidomethyl)piperidin-1-yl)methyl)-6-(3,5-dichlorophenyl)pyridin-2-yl)oxy)pyridin-2-yl)-1,4-diazepan-1-yl)propanoic acid], for which the EC50 in assay [1] was 158 nM. For the same compound, in assay [2], the “furin enzyme pIC50” value worked out at 10.7.

In the case of `CC(=O)NCC1CCN(Cc2cc(Oc3cnc(N4CCN(CC(O)C(=O)O)CC4)nc3)nc(-c3cc(Cl)cc(Cl)c3)c2)CC1` (stereo not drawn) [Example 316, 3-(4-(5-((4-((4-(acetamidomethyl)piperidin-1-yl)methyl)-6-(3,5-dichlorophenyl)pyridin-2-yl)oxy)pyrimidin-2-yl)piperazin-1-yl)-2-hydroxypropanoic acid], in assay [1], the EC50 is 100 nM. Besides, the “furin enzyme pIC50” value in assay [2] is on record as 10.2.

Turning to `CN1CCCN(c2ccc(Oc3cc(CN4CCC(CC(=O)O)CC4)cc(-c4cc(Cl)cc(Cl)c4)n3)nn2)CC1` [Example 356, 2-(1-((2-(3,5-dichlorophenyl)-6-((6-(4-methyl-1,4-diazepan-1-yl)pyridazin-3-yl)oxy)pyridin-4-yl)methyl)piperidin-4-yl)acetic acid], the EC50 in assay [1] is 31.6 nM. Moreover, in assay [2], the “furin enzyme pIC50” value was found to be 8.6.

For the compound `CNC(=O)NCC1CCN(Cc2cc(Oc3cnc(N4CCN(C)CC4)cn3)nc(-c3cc(Cl)cc(Cl)c3)c2)CC1` [Example 394, 1-((1-((2-(3,5-dichlorophenyl)-6-((5-(4-methylpiperazin-1-yl)pyrazin-2-yl)oxy)pyridin-4-yl)methyl)piperidin-4-yl)methyl)-3-methylurea], in assay [1], the EC50 was 6.31 nM. In addition, the “furin enzyme pIC50” value in assay [2] is listed as 9.

`O=C(O)CC1CCN(Cc2cc(Oc3cnc(N4CC5CNCC5C4)nc3)nc(-c3cc(Cl)cc(Cl)c3)c2)CC1` (stereo not drawn) [Example 161, 2-(1-((2-(3,5-dichlorophenyl)-6-((2-(hexahydropyrrolo[3,4-c]pyrrol-2(1H)-yl)pyrimidin-5-yl)oxy)pyridin-4-yl)methyl)piperidin-4-yl)acetic acid]: the EC50 in assay [1] is 39.8 nM. Besides, the “furin enzyme pIC50” value in assay [2] was 8.3.

On to `NS(=O)(=O)CC1CCN(Cc2cc(Oc3ccc(N4CCN(CCC(=O)O)CC4)nc3)nc(-c3cc(Cl)cc(Cl)c3)c2)CC1` [Example 38, 3-(4-(5-((6-(3,5-Dichlorophenyl)-4-((4-(sulfamoylmethyl)piperidin-1-yl)methyl)pyridin-2-yl)oxy)pyridin-2-yl)piperazin-1-yl)propanoic acid], for which the EC50 in assay [1] is 126 nM. Besides, in assay [2], the “furin enzyme pIC50” value was 9.

As to `CC(=O)NCC1CCN(Cc2cc(Oc3ccc(N4CCN(CCC(=O)O)[C@@H](C)C4)nc3)nc(-c3cc(Cl)cc(Cl)c3)c2)CC1` [Example 186, (S)-3-(4-(5-((4-((4-(acetamidomethyl)piperidin-1-yl)methyl)-6-(3,5-dichlorophenyl)pyridin-2-yl)oxy)pyridin-2-yl)-2-methylpiperazin-1-yl)propanoic acid], the EC50 in assay [1] is 39.8 nM. In addition, the “furin enzyme pIC50” value in assay [2] came out at 9.1.

As for `CC(=O)NCC1CCN(Cc2cc(Oc3ccc(N4CCC(N)C(C)(C)C4)nc3)nc(-c3cc(Cl)cc(Cl)c3)c2)CC1` (stereo not drawn) [Example 198, N-((1-((2-((6-(4-amino-3,3-dimethylpiperidin-1-yl)pyridin-3-yl)oxy)-6-(3,5-dichlorophenyl)pyridin-4-yl)methyl)piperidin-4-yl)methyl)acetamide], the EC50 in assay [1] was 2 nM. Moreover, in assay [2], the “furin enzyme pIC50” value came to 9.3.

In the case of `CN1CCN(c2ncc(Oc3cc(CN4CCC(NC(=O)NS(C)(=O)=O)CC4)cc(-c4cc(Cl)cc(Cl)c4)n3)cn2)CC1` [Example 328, N-((1-((2-(3,5-dichlorophenyl)-6-((2-(4-methylpiperazin-1-yl)pyrimidin-5-yl)oxy)pyridin-4-yl)methyl)piperidin-4-yl)carbamoyl)methanesulfonamide], the EC50 in assay [1] is 12.6 nM. Besides, the “furin enzyme pIC50” value in assay [2] turned out to be 8.3.

Regarding `CS(=O)(=O)CCCN1CCN(c2ccc(Oc3cc(CN4CCC(CC(=O)O)CC4)cc(-c4cc(Cl)cc(Cl)c4)n3)cn2)CC1` [Example 243, 2-(1-((2-(3,5-dichlorophenyl)-6-((6-(4-(3-(methylsulfonyl)propyl)piperazin-1-yl)pyridin-3-yl)oxy)pyridin-4-yl)methyl)piperidin-4-yl)acetic acid], the EC50 in assay [1] is 25.1 nM. In assay [2], the “furin enzyme pIC50” value was 8.7.

For the compound `CC(C)(O)CN1CCN(c2cnc(Oc3cc(CN4CCC(CC(=O)O)CC4)cc(-c4cc(Cl)cc(Cl)c4)n3)cn2)CC1` [Example 343, 2-(1-((2-(3,5-dichlorophenyl)-6-((5-(4-(2-hydroxy-2-methylpropyl)piperazin-1-yl)pyrazin-2-yl)oxy)pyridin-4-yl)methyl)piperidin-4-yl)acetic acid], the EC50 in assay [1] was 63.1 nM. The “furin enzyme pIC50” value in assay [2] worked out at 8.7.

Take `CNC(=O)NCC1CCN(Cc2cc(Oc3cnc(N4CCN(CCCS(C)(=O)=O)CC4)nc3)nc(-c3cc(F)cc(Cl)c3)c2)CC1` [Example 274, 1-((1-((2-(3-chloro-5-fluorophenyl)-6-((2-(4-(3-(methylsulfonyl)propyl)piperazin-1-yl)pyrimidin-5-yl)oxy)pyridin-4-yl)methyl)piperidin-4-yl)methyl)-3-methylurea]: the EC50 in assay [1] is 6.31 nM. In addition, the “furin enzyme pIC50” value in assay [2] is reported as 9.

For the compound `CCC(=O)NCC1CCN(Cc2cc(Oc3cnc(N4CCN(CCC(C)C(=O)O)CC4)cn3)nc(-c3cc(Cl)cc(Cl)c3)c2)CC1` (stereo not drawn) [Example 392, 4-(4-(5-((6-(3,5-dichlorophenyl)-4-((4-(propionamidomethyl)piperidin-1-yl)methyl)pyridin-2-yl)oxy)pyrazin-2-yl)piperazin-1-yl)-2-methylbutanoic acid], the EC50 in assay [1] is 15.8 nM. Besides, the “furin enzyme pIC50” value in assay [2] turned out to be 9.

For the compound `CNC1CCN(c2ccc(Oc3cc(CN4CCC(CNC(C)=O)CC4)cc(-c4cc(Cl)cc(Cl)c4)n3)cn2)CC1` [Example 193, N-((1-((2-(3,5-dichlorophenyl)-6-((6-(4-(methylamino)piperidin-1-yl)pyridin-3-yl)oxy)pyridin-4-yl)methyl)piperidin-4-yl)methyl)acetamide], the EC50 in assay [1] was 3.16 nM. Besides, in assay [2], the “furin enzyme pIC50” value was found to be 9.

Regarding `CN1CCN(c2ncc(Oc3cc(CN4CCC(CC(=O)O)CC4)cc(-c4cc(Cl)cc(Cl)c4)n3)cn2)CC(O)C1` (stereo not drawn) [Example 226, 2-(1-((2-(3,5-dichlorophenyl)-6-((2-(6-hydroxy-4-methyl-1,4-diazepan-1-yl)pyrimidin-5-yl)oxy)pyridin-4-yl)methyl)piperidin-4-yl)acetic acid], the EC50 in assay [1] was 15.8 nM. In addition, the IC50 in assay [2] (read-out: furin enzyme pIC50 (converted)) is 2.51 nM.

Turning to `CNCCC(C)N1CCN(c2ncc(Oc3cc(CN4CCC(CC(=O)O)CC4)cc(-c4cc(Cl)cc(Cl)c4)n3)cn2)CC1` (stereo not drawn) [Example 239, 2-(1-((2-(3,5-Dichlorophenyl)-6-((2-(4-(4-(methylamino)butan-2-yl)piperazin-1-yl)pyrimidin-5-yl)oxy)pyridin-4-yl)methyl)piperidin-4-yl)acetic acid], in assay [1], the EC50 is 25.1 nM. In addition, the “furin enzyme pIC50” value in assay [2] was determined as 8.

`CC(=O)NCC1CCN(Cc2cc(Oc3ccc(N4CCN(C)CC(F)C4)nc3)nc(-c3cc(Cl)cc(Cl)c3)c2)CC1` (stereo not drawn) [Example 145, N-((1-((2-(3,5-dichlorophenyl)-6-((6-(6-fluoro-4-methyl-1,4-diazepan-1-yl)pyridin-3-yl)oxy)pyridin-4-yl)methyl)piperidin-4-yl)methyl)acetamide]: the EC50 in assay [1] was 2 nM. In addition, in assay [2], the “furin enzyme pIC50” value is 8.9.

Consider `COC(=O)NCC1(F)CCN(Cc2cc(Oc3cnc(N4CCN(CCC(=O)O)CC4)nc3)nc(-c3cc(Cl)cc(Cl)c3)c2)CC1` [Example 51, 3-((4-(5-((6-(3,5-Dichlorophenyl)-4-((4-fluoro-4-(((methoxycarbonyl)amino)methyl)piperidin-1-yl)methyl)pyridin-2-yl)oxy)pyrimidin-2-yl)piperazin-1-yl)propanoic acid, 4 hydrochloride], for which the EC50 in assay [1] was 158 nM. Also, the “furin enzyme pIC50” value in assay [2] amounted to 8.2.

Consider `CC(=O)NCC1CCN(Cc2cc(Oc3cnc(N4CCN(CCC(C)C(=O)O)CC4)cn3)nc(-c3cc(Cl)cc(Cl)c3)c2)CC1` (stereo not drawn) [Example 396, 4-(4-(5-((4-((4-(acetamidomethyl)piperidin-1-yl)methyl)-6-(3,5-dichlorophenyl)pyridin-2-yl)oxy)pyrazin-2-yl)piperazin-1-yl)-2-methylbutanoic acid], for which, in assay [1], the EC50 is 10 nM. The “furin enzyme pIC50” value in assay [2] is recorded as 10.3.

With `CC(=O)NCC1CCN(Cc2cc(Oc3ccc(N4CCN(CCN)CC4)nc3)nc(-c3cc(Cl)cc(Cl)c3)c2)CC1` [Example 28, N-((1-((2-((6-(4-(2-Aminoethyl)piperazin-1-yl)pyridin-3-yl)oxy)-6-(3,5-dichlorophenyl)pyridin-4-yl)methyl)piperidin-4-yl)methyl)acetamide], the EC50 in assay [1] is 2 nM. In addition, the “furin enzyme pIC50” value in assay [2] came to 9.

Turning to `COC(=O)NC(=O)CCN1CCN(c2ccc(Oc3cc(CN4CCC(CNC(C)=O)CC4)cc(-c4cc(Cl)cc(Cl)c4)n3)cn2)CC1` [Example 176, methyl (3-(4-(5-((4-((4-(acetamidomethyl)piperidin-1-yl)methyl)-6-(3,5-dichlorophenyl)pyridin-2-yl)oxy)pyridin-2-yl)piperazin-1-yl)propanoyl)carbamate], the EC50 in assay [1] is 3.98 nM. Moreover, the “furin enzyme pIC50” value in assay [2] is listed as 9.
